Test results taken from patent publication US11819499B2, “Single-dose, ready-to-use injectable formulations” (BioSplice Therapeutics, Inc., priority 2016, dated 2023).
Marks after values point to notes of the source that are not given here. Blank lines part the entries; values can stand above or below the compound they belong to.

Tests used:
Type in all cases: physicochemical
[1] = Exposure to relative humidity / air followed by XRD; details: for XRD after drying at 50° C. under vacuum: after air exposure overnight, then dried at 50° C. under vacuum; for XRD after exposure to air overnight: exposed to air overnight
Description: FIGS. 15A-15D are scans of Form 1 in the presence of increasing relative humidity (RH), an example of a non-stoichiometric or stoichiometric hydrate of polymorph Form 1 of the compound of Formula (I). FIG. 15A is an x-ray powder diffraction scan of Form 1 exposed to 10% RH as the anhydrous Form 1. FIG. 15B is an x-ray powder diffraction scan of Form 1 exposed to 20% RH as a partial hydrate of Form 1. FIG. 15C is an x-ray powder diffraction scan of Form 1 exposed to 30% RH as a hydrate of Form 1 (≈10-12% water uptake). FIG. 15D is an x-ray powder diffraction scan of Form 1 exposed to 90% RH as a full hydrate of Form 1 (≈17-20% water uptake). […] The hydrate lost its water below 30% RH. […] The crystal lattice of Form 1 expanded when water was sorbed, giving rise to XRD peaks at ˜5, ˜7 and ˜11 degrees while maintaining the main XRD pattern. The hydrates of Form 1 of a compound of Formula (I) (Form 11) were fully reversible, and lost water when exposed to % RH of less than 20%, turning Form 11 to hydrated forms of Form 1 and to the anhydrous Form 1. Solvates 1 and 2 solids were exposed to air overnight, and then analyzed by XRD. After the analysis, the solids were dried at 50° C. under vacuum, and then analyzed by XRD again.

[2] = Reslurry experiments (polymorph screen) in 39 pure and binary solvents at RT and 50° C. for 5 days, XRD of wet and dry samples
Method: Reslurry experiments in various solvents were performed. Approximately 30-80 mg of the starting solid (a non-stoichiometric or stoichiometric hydrate of Form 1 having between 1% and about 20% by weight water) was slurried in 39 different solvents (pure and binary solvents; the ratio of organic solvent/water (V/V) was 95%/5%) at RT and 50° C. for 5 days. Three solvates, one hydrate, and eleven non-solvated forms were identified. […] XRD of both wet and dry samples were scanned (FIG. 12A (dry sample)).
The slurry experiments identified 3 solvated forms from wet samples (Solvates 1, 2, and 3); 2 non-stoichiometric hydrates of Form 1 (Forms 12 and 13); and 11 non-solvated forms (Forms 1-11). In some instances, similar XRD scans with minor differences were obtained. These were considered to be part of the same class (e.g., the same form). For example, XRD scans of Form 2 and Form 2* were similar and were considered to belong to the same class. The solvated forms were obtained from wet sample analysis; after drying, the sample indicated a different XRD.
Solvate 1 was obtained from acetone at RT, and after drying, a low crystallinity solid was generated. Solvate 2 was obtained from acetone (at RT) and acetone/water (at RT), and after drying, Form 4** was generated. Solvate 3 was obtained from EtOH/water at RT, and after drying, Form 2 was generated.

[3] = Dynamic vapor sorption (DVS) scan
Description: The purity of the Form 13 sample was 98.8%; the KF of an undried Form 13 sample was 35.7%.

[4] = Competitive slurry experiments between polymorph forms (15 forms mixed, 3-5 days, XRD)
Method: In order to find out the thermodynamic stability between the different forms, several competitive slurry experiments were carried out. Form 1, Form 2, Form 2*, Form 3, Form 4, Form 4*, Form 4**, Form 5, Form 7, Form 8, Form 9, Form 10, Form 11, Form 11*, and Form 13 (10 mg for each) was mixed and slurried in 2 mL of solvent at both RT and 50° C. The solids were slurried for 3-5 days and then analyzed by XRD.

[5] = Drying or heating in a DSC chamber followed by XRD (form conversion)
Method: The Form 1 solid was dried at 75° C. under vacuum overnight, and XRD, DSC, and TGA scans were performed. […] However, the DSC scans indicated the absence of endotherm. The loss of the early peak on the DSC scan had no effect on the XRD trace, showing that the wide endotherm between 50-100° C. on DSC scan was due to the free solvent.
The Form 1 solid was heated in a DSC chamber to 305° C. (past the endotherm/exotherm around 280° C.), and then scanned by XRD. […] It can be concluded that the endotherm/exotherm around 280° C. might be due to melting/crystallization events.
The Form 2 solid was heated in a DSC machine to 90° C. (past the wide endotherm between 50-100° C.); to 270° C. (past the endotherm/exotherm around 240° C.); and finally to 330° C. (past the […]). The residual solid was analyzed by XRD. […] The wide endotherm between 50-100° C. might be free solvent or hydrate. […] Thus, the exotherm around 290° C. was a re-crystallization event. According to an XRD and DSC overlay, the behavior of Form 2* was similar to Form 2.
This has been confirmed for Forms 1 and 2.
Form 13 solid was heated in a DSC chamber to 170° C. (past the endotherm between 50-100° C.), and then scanned by XRD. […] It can be concluded that the endotherm between 50-100° C. is due to bonded water.
Form 13 solid was heated in a DSC chamber to 330° C. (past the endotherm/exotherm around 300° C.), and then scanned by XRD. […] It can be concluded that the endotherm/exotherm is due to melting/crystallization events.

[6] = reslurry in Acetonitrile/water (5% water), RT
[7] = reslurry in EA/water (5% water), RT
[8] = reslurry in Heptane/water (5% water), RT
[9] = reslurry in IPAc/water (5% water), RT
[10] = reslurry in MA/water (5% water), 50° C.
[11] = reslurry in MIBK/water (5% water), RT
[12] = reslurry in MeOH/water (5% water), RT
[13] = reslurry in MtBE/water (5% water), RT
[14] = reslurry in n-Butyl acetate/water (5% water), RT
[15] = reslurry in EtOH/water (5% water), RT
[16] = reslurry in Acetone/water (5% water), RT

Compound: CC(C)CC(=O)Nc1cncc(-c2ccc3[nH]nc(-c4nc5c(-c6cccc(F)c6)cncc5[nH]4)c3c2)c1 [Form 11, N-(5-(3-(7-(3-fluorophenyl)-3H-imidazo[4,5-c]pyridin-2-yl)-1H-indazol-5-yl)pyridin-3-yl)-3-methylbutanamide]
- RH below which the hydrate lost its water ([1]; relative humidity): less than 20%

Compound: CC(C)CC(=O)Nc1cncc(-c2ccc3[nH]nc(-c4nc5c(-c6cccc(F)c6)cncc5[nH]4)c3c2)c1 [Form 12, N-(5-(3-(7-(3-fluorophenyl)-3H-imidazo[4,5-c]pyridin-2-yl)-1H-indazol-5-yl)pyridin-3-yl)-3-methylbutanamide]
- Dry (form by XRD) [2, 6]: Form 1
- Wet (form by XRD) [2, 6]: Form 12
- Dry (form by XRD) [2, 7]: Form 1
- Wet (form by XRD) [2, 7]: Form 12
- Dry (form by XRD) [2, 8]: Form 12
- Wet (form by XRD) [2, 8]: Form 13
- Dry (form by XRD) [2, 9]: Form 1
- Wet (form by XRD) [2, 9]: Form 12
- Dry (form by XRD) [2, 10]: Form 4
- Wet (form by XRD) [2, 10]: Form 12
- Dry (form by XRD) [2, 11]: Form 1
- Wet (form by XRD) [2, 11]: Form 12
- Dry (form by XRD) [2, 12]: Form 1
- Wet (form by XRD) [2, 12]: Form 12
- Dry (form by XRD) [2, 13]: Form 1
- Wet (form by XRD) [2, 13]: Form 12
- Dry (form by XRD) [2, 14]: Form 12
- Wet (form by XRD) [2, 14]: Form 13

Compound: CC(C)CC(=O)Nc1cncc(-c2ccc3[nH]nc(-c4nc5c(-c6cccc(F)c6)cncc5[nH]4)c3c2)c1 [Form 9, N-(5-(3-(7-(3-fluorophenyl)-3H-imidazo[4,5-c]pyridin-2-yl)-1H-indazol-5-yl)pyridin-3-yl)-3-methylbutanamide]
- form before and after the DVS scan ([3]; DVS scan): did not change its form
- water absorption (DVS scan) ([3]; at 90% RH): 0.8%

Compound: CC(C)CC(=O)Nc1cncc(-c2ccc3[nH]nc(-c4nc5c(-c6cccc(F)c6)cncc5[nH]4)c3c2)c1 [Solvate 1, N-(5-(3-(7-(3-fluorophenyl)-3H-imidazo[4,5-c]pyridin-2-yl)-1H-indazol-5-yl)pyridin-3-yl)-3-methylbutanamide]
- XRD after drying at 50° C. under vacuum [1]: still low crystallinity solid
- XRD after exposure to air overnight [1]: converted to low crystallinity
- Dry (form by XRD) ([2]; reslurry in Acetone, RT): Low
- Wet (form by XRD) ([2]; reslurry in Acetone, RT): Solvate 1

Compound: CC(C)CC(=O)Nc1cncc(-c2ccc3[nH]nc(-c4nc5c(-c6cccc(F)c6)cncc5[nH]4)c3c2)c1 [Form 4, N-(5-(3-(7-(3-fluorophenyl)-3H-imidazo[4,5-c]pyridin-2-yl)-1H-indazol-5-yl)pyridin-3-yl)-3-methylbutanamide]
- thermodynamic stability between forms (competitive slurry) ([4]; EA at RT and 50° C.): most stable

Compound: CC(C)CC(=O)Nc1cncc(-c2ccc3[nH]nc(-c4nc5c(-c6cccc(F)c6)cncc5[nH]4)c3c2)c1 [Form 2, N-(5-(3-(7-(3-fluorophenyl)-3H-imidazo[4,5-c]pyridin-2-yl)-1H-indazol-5-yl)pyridin-3-yl)-3-methylbutanamide]
- thermodynamic stability between forms (competitive slurry) ([4]; MeOH, EtOH, and acetone system at both RT and 50° C.): most stable form
- form after heating (XRD) ([5]; heated in a DSC machine to 90° C.): did not change
- form after heating (XRD) ([5]; heated to 270° C.): converted to low crystalline solids
- form after heating (XRD) ([5]; heated to 330° C.): converted to Form 9
- form when heated to just before melting ([5]; heated to just before melting at 364° C.): convert to Form 9

More lines, main results first:

- Dry (form by XRD) [2, 15]: Form 2
- Wet (form by XRD) [2, 15]: Solvate 3
Compound: CC(C)CC(=O)Nc1cncc(-c2ccc3[nH]nc(-c4nc5c(-c6cccc(F)c6)cncc5[nH]4)c3c2)c1 [Solvate 3, N-(5-(3-(7-(3-fluorophenyl)-3H-imidazo[4,5-c]pyridin-2-yl)-1H-indazol-5-yl)pyridin-3-yl)-3-methylbutanamide]

- XRD after exposure to air overnight [1]: changed a little
- Dry (form by XRD) ([2]; reslurry in Acetone, 50° C.): Form 4**
- Wet (form by XRD) ([2]; reslurry in Acetone, 50° C.): Solvate 2
- Dry (form by XRD) [2, 16]: Form 4**
- Wet (form by XRD) [2, 16]: Solvate 2
Compound: CC(C)CC(=O)Nc1cncc(-c2ccc3[nH]nc(-c4nc5c(-c6cccc(F)c6)cncc5[nH]4)c3c2)c1 [Solvate 2, N-(5-(3-(7-(3-fluorophenyl)-3H-imidazo[4,5-c]pyridin-2-yl)-1H-indazol-5-yl)pyridin-3-yl)-3-methylbutanamide]
- XRD after drying at 50° C. under vacuum [1]: remained the same as the solid exposed to air overnight
